From PMC10341573, “Design, Synthesis, and Biological Evaluation of Novel Quinazolin-4(3H)-One-Based Histone Deacetylase 6 (HDAC6) Inhibitors for Anticancer Activity” (International Journal of Molecular Sciences, 2023)
Several values for one entry are separate records, joined by “and”; a condition that tells them apart may be missing. Identical values can stand only once. Like-named read-outs stand apart in the source and are kept apart here.

Columns and labels:
[1] = tested on: A549, MCF-7, and HT-29; design: method as in doi:10.1016/j.molstruc.2022.132422; details: most active in all cell lines examined (A549, MCF-7, HT-29); read-out: IC50, antiproliferative; cited from earlier work
[2] = tested on: HCT-116 cell line; design: method as in PMID 33214036; details: read-out: IC50, antiproliferative; cited from earlier work
[3] = molecular target: T1, HDAC4 (Homo sapiens, UniProt P56524); assay: HDAC enzyme activity assay (fluorogenic, Boc-Lys(trifluoroacetyl)-AMC), HDAC4; assay type: biochemical; details: class IIa HDAC4; mean ± SD, triplicate
T1 construct: catalytic domain of HDAC4 (T648-T1057, full length: UniProt P56524); made in house; host or cells: E. coli BL21(DE3), pET14b vector

[4] = molecular target: T2, HDAC6 (Homo sapiens, UniProt Q9UBN7); assay: HDAC enzyme activity assay (fluorogenic, Boc-Lys(acetyl)-AMC), HDAC6; assay type: biochemical; details: for IC50: class IIb HDAC6, mean ± SD, triplicate
T2 construct: Full-length recombinant HDAC6 was purchased from BPS Bioscience; purchased BPS Bioscience
T2 sequence (Q9UBN7 1-1215): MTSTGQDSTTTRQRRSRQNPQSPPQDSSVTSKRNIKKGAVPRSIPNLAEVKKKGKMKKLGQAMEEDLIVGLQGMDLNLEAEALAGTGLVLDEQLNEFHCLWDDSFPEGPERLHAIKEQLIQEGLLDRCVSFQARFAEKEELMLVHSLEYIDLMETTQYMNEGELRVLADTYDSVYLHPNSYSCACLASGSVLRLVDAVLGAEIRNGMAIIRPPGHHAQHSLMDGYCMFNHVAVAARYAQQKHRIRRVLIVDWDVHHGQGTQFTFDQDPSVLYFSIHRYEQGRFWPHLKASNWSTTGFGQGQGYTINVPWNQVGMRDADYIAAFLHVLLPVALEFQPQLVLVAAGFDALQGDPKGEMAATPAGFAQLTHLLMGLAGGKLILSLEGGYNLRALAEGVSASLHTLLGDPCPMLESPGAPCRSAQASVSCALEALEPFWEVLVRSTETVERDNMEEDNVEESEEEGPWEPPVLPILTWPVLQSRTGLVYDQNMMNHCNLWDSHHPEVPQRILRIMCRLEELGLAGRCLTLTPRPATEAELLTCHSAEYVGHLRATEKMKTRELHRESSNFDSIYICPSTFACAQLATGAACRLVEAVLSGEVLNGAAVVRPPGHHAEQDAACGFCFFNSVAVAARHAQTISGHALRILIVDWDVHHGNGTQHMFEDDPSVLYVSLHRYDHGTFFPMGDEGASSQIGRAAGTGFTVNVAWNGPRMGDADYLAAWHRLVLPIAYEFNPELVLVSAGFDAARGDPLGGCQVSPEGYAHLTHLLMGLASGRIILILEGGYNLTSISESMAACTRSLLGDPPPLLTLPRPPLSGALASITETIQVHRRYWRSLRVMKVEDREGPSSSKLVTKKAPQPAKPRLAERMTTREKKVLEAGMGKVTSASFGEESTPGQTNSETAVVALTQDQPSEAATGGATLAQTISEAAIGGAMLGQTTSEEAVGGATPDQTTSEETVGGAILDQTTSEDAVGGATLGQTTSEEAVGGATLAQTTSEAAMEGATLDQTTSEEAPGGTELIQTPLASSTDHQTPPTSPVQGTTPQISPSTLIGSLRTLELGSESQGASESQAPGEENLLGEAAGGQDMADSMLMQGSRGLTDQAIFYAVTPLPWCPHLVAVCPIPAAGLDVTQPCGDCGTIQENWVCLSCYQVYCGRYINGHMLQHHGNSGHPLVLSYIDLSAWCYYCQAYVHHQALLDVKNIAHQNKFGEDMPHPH

[5] = molecular target: T3, HDAC8 (Homo sapiens, UniProt Q9BY41); assay: HDAC enzyme activity assay (fluorogenic, Boc-Lys(trifluoroacetyl)-AMC), HDAC8; assay type: biochemical; details: class I HDAC8; mean ± SD, triplicate
T3 construct: codon-optimized full-length HDAC8; made in house; host or cells: E. coli BL21(DE3), pET14b vector
T3 sequence (Q9BY41 1-377): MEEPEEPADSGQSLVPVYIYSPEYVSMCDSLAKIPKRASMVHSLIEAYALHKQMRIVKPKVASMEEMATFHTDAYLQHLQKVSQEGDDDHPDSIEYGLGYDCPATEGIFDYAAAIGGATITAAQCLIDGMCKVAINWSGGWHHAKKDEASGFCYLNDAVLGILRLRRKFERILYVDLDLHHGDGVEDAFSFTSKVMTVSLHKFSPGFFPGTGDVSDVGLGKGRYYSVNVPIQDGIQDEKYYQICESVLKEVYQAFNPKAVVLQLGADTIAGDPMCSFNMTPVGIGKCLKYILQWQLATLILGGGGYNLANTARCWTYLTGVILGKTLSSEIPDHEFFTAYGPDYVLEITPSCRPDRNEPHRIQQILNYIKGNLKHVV

[6] = tested on: HCT116; assay: MTT cell proliferation assay, HCT116; assay type: cell-based, human; details: Homo sapiens, read-out: IC50 ± SD HCT116
[7] = tested on: MCF7; assay: MTT cell proliferation assay, MCF7; assay type: cell-based, human; details: Homo sapiens, MCF7, 72 h, read-out: IC50 ± SD MCF7
[8] = tested on: B16; assay: MTT cell proliferation assay, B16; assay type: cell-based, murine; details: Mus musculus, read-out: IC50 ± SD B16
[9] = tested on: HEK 293; assay: MTT cell proliferation assay, HEK 293; assay type: cell-based, human; details: Homo sapiens, read-out: IC50 ± SD HEK 293
[10] = tested on: HCC827 cells; design: method as in PMID 34403956; details: strongest against all cancer cell lines, read-out: IC50, antiproliferative; cited from earlier work
[11] = tested on: HDAC; design: method as in PMID 29223029; details: quinazoline-4-(3H)-one cap group; read-out: IC50 HDAC inhibitory activity; cited from earlier work
[12] = cited from earlier work
[13] = HCT-116, MTT, 72 h, mean ± SD, triplicate
[14] = MTT, 72 h, mean ± SD, triplicate
[15] = B16, MTT, 72 h, mean ± SD, triplicate
[16] = HEK293, MTT, 72 h, mean ± SD, triplicate

T1 sequence (P56524 648-1057): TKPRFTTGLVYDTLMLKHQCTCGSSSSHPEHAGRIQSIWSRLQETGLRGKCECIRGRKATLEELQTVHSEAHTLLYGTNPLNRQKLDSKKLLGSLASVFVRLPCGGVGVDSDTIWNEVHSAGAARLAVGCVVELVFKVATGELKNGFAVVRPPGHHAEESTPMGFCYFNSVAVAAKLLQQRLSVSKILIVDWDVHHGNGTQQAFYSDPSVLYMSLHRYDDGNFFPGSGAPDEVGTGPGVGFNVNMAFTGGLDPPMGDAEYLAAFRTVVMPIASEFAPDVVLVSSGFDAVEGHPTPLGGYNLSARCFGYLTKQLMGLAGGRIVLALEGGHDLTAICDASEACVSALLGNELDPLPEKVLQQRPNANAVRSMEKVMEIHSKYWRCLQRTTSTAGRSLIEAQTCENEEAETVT

Row | IC50 [3] | IC50 [4] | IC50 [5] | IC50 [6, 13] | IC50 [7, 14] | IC50 [8, 15] | melting point | SMILES | IC50 [9, 16] | further results
1 | 0.64 ± 0.37 µM | 0.28 ± 0.06 µM | 2.3 ± 0.8 µM | 34.5 ± 10.4 µM | 21.7 ± 2.47 µM | 29.8 ± 8.72 µM | 150 to 157 °C and 155 to 157 °C | CCc1ccc(-n2c(SCc3ccc(C(=O)NO)cc3)nc3ccccc3c2=O)cc1 [Compound 5d, 4-(((3-(4-ethylphenyl)-4-oxo-3,4-dihydroquinazolin-2-yl)thio)methyl)-N-hydroxybenzamide] | > 50 µM | 
2 | 1.6 ± 0.9 µM | 0.49 ± 0.12 µM | 3 ± 1 µM | > 50 µM | > 50 µM | > 50 µM | 138 to 144 °C and 142 to 144 °C | Cc1ccc(-n2c(SCc3ccc(C(=O)NO)cc3)nc3ccccc3c2=O)cc1C [Compound 5f, 4-(((3-(3,4-dimethylphenyl)-4-oxo-3,4-dihydroquinazolin-2-yl)thio)methyl)-N-hydroxybenzamide] | > 50 µM | 
3 | > 35 µM | 0.41 ± 0.15 µM | 1.3 ± 0.1 µM | > 50 µM | > 50 µM | > 50 µM | 180 °C and 178 to 180 °C | Cc1ccccc1-n1c(SCc2ccc(C(=O)NO)cc2)nc2cc(Cl)ccc2c1=O [Compound 5k, 4-(((7-chloro-4-oxo-3-(o-tolyl)-3,4-dihydroquinazolin-2-yl)thio)methyl)-N-hydroxybenzamide] | > 50 µM | 
4 | 19 µM | 3.9 ± 0.4 µM | 17 µM | > 50 µM | > 50 µM | > 50 µM | 170 to 175 °C and 173 to 175 °C | Cc1ccc(-n2c(SCc3ccc(C(=O)NO)cc3)nc3cc(Cl)ccc3c2=O)cc1 [Compound 5l, 4-(((7-chloro-4-oxo-3-(p-tolyl)-3,4-dihydroquinazolin-2-yl)thio)methyl)-N-hydroxybenzamide] | > 50 µM | 
5 | 6.7 ± 1.1 µM | 0.32 ± 0.03 µM | 0.14 ± 0.02 µM | > 50 µM | > 50 µM | 33.9 ± 5.12 µM | 230 to 235 °C and 234 to 235 °C | O=C(NO)c1ccc(CSc2nc3cc(Cl)ccc3c(=O)n2-c2ccc(Cl)cc2)cc1 [Compound 5n, 4-(((7-chloro-3-(4-chlorophenyl)-4-oxo-3,4-dihydroquinazolin-2-yl)thio)methyl)-N-hydroxybenzamide] | > 50 µM | 
6 | 0.4 ± 0.14 µM | 0.22 ± 0.05 µM | 2.7 ± 0.6 µM | > 50 µM | > 50 µM | > 50 µM |  | Cc1cccc2nc(SCc3ccc(C(=O)NO)cc3)n(-c3ccccc3)c(=O)c12 [Compound 5p, N-hydroxy-4-(((5-methyl-4-oxo-3-phenyl-3,4-dihydroquinazolin-2-yl)thio)methyl)benzamide] | > 50 µM | 
7 | 0.91 ± 0.33 µM | 0.86 ± 0.06 µM | 5.9 ± 0.8 µM | > 50 µM | > 50 µM | > 50 µM |  | Cc1cccc2nc(SCc3ccc(C(=O)NO)cc3)n(-c3ccc(Cl)cc3)c(=O)c12 [Compound 5s, 4-(((3-(4-chlorophenyl)-5-methyl-4-oxo-3,4-dihydroquinazolin-2-yl)thio)methyl)-N-hydroxybenzamide] | > 50 µM | 

More lines, now with the values behind:

Row | SMILES | IC50 [3] | IC50 [4] | IC50 [5] | IC50 [6, 13] | IC50 [7, 14] | IC50 [8, 15] | melting point | IC50 [9, 16] | further results
8 | C=CCn1c(SCC(=O)Nc2cccc(C(=O)/C=C/c3ccc(OC)cc3)c2)nc2ccccc2c1=O [A] |  |  |  |  |  |  |  |  | IC50 [1]: 1.16 µM
9 | C/C(=N\NC(=O)c1cc([N+](=O)[O-])ccc1Cl)c1ccc(NC(=O)CSc2nc3ccccc3c(=O)n2-c2ccc(C)cc2)cc1 [B] |  |  |  |  |  |  |  |  | IC50 [2]: 11.7 µM
10 | Cc1ccc(-n2c(SCc3ccc(C(=O)NO)cc3)nc3cc(Cl)ccc3c2=O)cc1C [Compound 5o, 4-(((7-chloro-3-(3,4-dimethylphenyl)-4-oxo-3,4-dihydroquinazolin-2-yl)thio)methyl)-N-hydroxybenzamide] | 7.1 ± 1.1 µM | 0.4 µM and 0.39 µM | 14 µM | > 50 µM | > 50 µM | > 50 µM |  | > 50 µM | selectivity against class IIa HDAC4 ([4]; HDAC6 versus HDAC4): 18 fold; selectivity against class I HDAC8 ([4]; HDAC6 versus HDAC8): 36 fold
11 | O=C(c1ccccc1)N(C(=O)c1ccccc1)c1ccc(-c2ccc3ncn(Cc4ccccc4)c(=O)c3c2)cn1 [Compound C] |  |  |  |  |  |  |  |  | IC50 [10]: 1.12 µM
12 | COc1cc2ncn(Cc3ccc(C(=O)NO)cc3)c(=O)c2cc1OC [G] |  |  |  |  |  |  |  |  | IC50 [11]: 0.37 µM
13 | O=C(NO)c1ccc(CN(c2cnccn2)c2cnccn2)cc1 [KA2507] |  |  |  |  |  |  |  |  | clinical activity ([12]; phase I/II): prolonged dis-ease stabilization in a subset of patients; toxicity in clinical trial ([12]; phase I/II): no significant toxicities
14 | O=C(CCCCCCNC(=O)c1cnc(N(c2ccccc2)c2ccccc2)nc1)NO [Ricolinostat, reference compound] |  |  |  |  |  |  |  |  | IC50 ([6]; HCT-116, 72 h): 40.5 ± 7.69 µM; IC50 [7]: > 50 µM; IC50 ([8]; B16, 72 h): 89.2 ± 12.5 µM; IC50 ([9]; HEK293, 72 h): 66.8 ± 10.6 µM; outcome of combination therapy with bortezomib and dexamethasone ([12]; multiple myeloma): safe, well-tolerated, and active against multiple myeloma; safety of combination with paclitaxel ([12]; patients with metastatic breast cancer): could be safely combined with paclitaxel; single-agent therapy outcome ([12]; single agent): neither significant toxicities nor clinical responses
